From patent US9221868B2, “Uridine di- or tri-phosphate derivatives and uses thereof” (BAR-ILAN UNIVERSITY, priority 2010, dated 2015)
Entries after “also recorded” stand apart in the source; their conditions may differ. Where two headings read alike, the source gives them in different places.

Key:
[1] = physchem; conditions: for Rate constant of phosphate ester hydrolysis at pH 1.4: pH 1.4, 37° C., pseudo-first-order
Method: All stability experiments were performed in duplicates.
The stability of UDP, 11, 12 and 13A in a buffer solution (pH 1.4) was evaluated by ^31P NMR at 37° C. for monitoring possible dephosphorylation products (the signal of the phosphate hydrolysis products is at ˜0 ppm, while that of the borano phosphate analogues is at ˜85 ppm). NMR spectra were recorded on a Bruker DMX-600 spectrometer with a ^31P NMR probe (isotope frequency of 240 MHz) using 85% H3PO4 as an external reference.
Sodium salts of UDP, 11, 12 and 13A were dissolved in 0.45 ml of KCl/HCl buffer (pH 1.4) and D2O (0.05 ml) was added. The final pH was adjusted to pH 1.4. pH measurements were performed with an Metrohm pH electrode and a Metrohm 827 meter. Spectra were recorded at 15 min, 1 h, or 24 h time intervals at 37° C. For experiments that were several days long, the solution was kept in an oil bath at 37° C. and spectra were recorded at ca. 24 h time intervals. The phosphate ester hydrolysis rate was determined by measuring the change of the integration of one of the phosphates signals of the starting material with time.

[2] = biological target: T1, P2Y6-R (Homo sapiens, UniProt Q15077); assay: [Ca2+]i increase in 1321N1 astrocytoma cells expressing P2Y6-R; format: cell-based; conditions: for EC50: 1321N1 astrocytoma cells, [Ca2+]i, read-out: Potencies (EC50) at the P2Y6-R; for Activity at the P2Y6-R (in words): 1321N1 cells
T1 construct: expressed in transfected cells; host or cells: 1321N1 astrocytoma cells
Method: (§1) Green fluorescent protein (GFP) constructs of human P2Y2-R, P2Y4-R and P2Y6-R were expressed in 1321N1 astrocytoma cells, which lack endogenous expression of P2X- and P2Y-receptors. The respective cDNA of the receptor gene was cloned into a pEGFPN1 vector. After transfection using FuGENE 6 Transfection Reagent (Roche Molecular Biochemicals, Mannheim, Germany), the cells were selected with 0.5 mg/ml G418 (geneticine; Merck Chemicals, Darmstadt, Germany) and grown in Dulbecco's modified Eagles' medium (DMEM) supplemented with 10% fetal calf serum, 100 U/ml penicillin and […] at 37° C. and 5% CO2. The expression and cell membrane localization of the respective P2Y receptors was confirmed through the analysis of the GFP fluorescence. The functionality of the expressed GFP-labeled receptor in cells was verified by recording a change of [Ca^2+]i after stimulation with the appropriate receptor agonist.
(§2) 1321N1 astrocytoma cells transfected with the respective plasmid for P2YR-GFP expression plated on coverslips (22 mm diameter) and grown to approximately 80% density were incubated with 2 μM fura 2/AM and 0.02% pluronic acid in Na-HBS buffer (Hepes buffered saline: 145 mM NaCl, 5.4 mM KCl, 1.8 mM CaCl2, 1 mM MgCl2, 25 mM glucose, 20 mM Hepes/Tris pH 7.4) for 30 min at 37° C. The cells were superfused (1 ml/min, 37° C.) with different concentrations of nucleotide in Na-HBS buffer, and the nucleotide-induced change of [Ca^2+]i was measured by detecting the respective emission intensity of fura 2/AM at 510 nm with after 340 nm and 380 nm excitations (Ubl et al., 1998). The average maximal amplitude of the responses and the respective standard errors were calculated from the ratio of the fura 2/AM fluorescence intensities with excitations at 340 nm and 380 nm (only MT-labeled cells were analysed). Microsoft Excel (Microsoft Corp., Redmond, Wash., USA) and SigmaPlot (SPSS Inc., Chicago, Ill., USA) were used to derive the concentration-response curves and EC50 values from the average response amplitudes obtained in at least three independent experiments (Ecke et al., 2006, 2008). Only cells with a clear MT-signal and with the typical calcium response kinetics upon agonist pulse application were included in the data analysis. The GFP-tagged P2Y receptors are suitable for pharmacological and physiological studies, as previously reported (Tulapurkar et al., 2004, 2006; Zylberg et al., 2007).
1321N1 cell lines stably expressing the human P2Y6 receptors were grown as previously described in DMEM (5% FBS, 100 IU/ml penicillin, 100 μg/ml streptomycin, 1× Glutamax, 10 mM Hepes and 0.5 mg/ml G-418) at 37° C. in a humidified atmosphere containing 5% CO2 and 95% air (Gendron et al., 2003).
1321N1 cells (10×10^6 cells grown in 10 cm^2 dishes) were harvested by a brief trypsin/EDTA treatment, suspended in complete culture medium, and washed by centrifugation for 3 min at 100×g before being incubated with 1 μM Fluo 4/AM in 4.5 ml HBSS with Ca^2+ and Mg^2+ (Wisent, St. Bruno, QC) for 25 min at 37° C. Cells were washed by centrifugation (100×g, 3 min), suspended in HBSS containing Ca^2+ and Mg^2+, and incubated for 25 min at 37° C. Cells were washed and suspended in 16 ml of FIBSS containing Ca^+ and Mg^2+. Cell suspension (2 ml) was gently stirred in a quartz cuvette while [Ca^2+]i and monitored on a RF-5301 PC Shimadzu spectrofluorometer with Panormama fluorescence 1.1 software (Man-Tech, Guelph, ON). Excitation wavelengths of 488 nm and emission wavelength of 520 nm were used to measure changes in intracellular Fluo 4 fluorescence intensity (F). At the end of each recording, maximal fluorescence (Fmax) and minimal fluorescence (Fmin) were determined by adding successively 0.1% Triton X-100 and 50 mM EDTA to cell suspensions. The following equation from Grynkiewicz et al. (1985) was used to relate the fluorescence intensity to Ca^2+ levels: [Ca^2+]=Kd×(F−Fmin)/(Fmax−F), wherein Kd is the Ca^+ dissociation constant of the indicator (345 nM). […]

[3] = biological target: T2, P2Y4-R (Homo sapiens, UniProt P51582); assay: [Ca2+]i increase in 1321N1 astrocytoma cells expressing P2Y4-R; format: cell-based; conditions: n.d.r = no detectable response up to 100 μM
T2 construct: expressed in transfected cells; host or cells: 1321N1 astrocytoma cells
Method: as §1, §2
(§3) In this study, analogues 13-17 were tested for their potency and selectivity at P2Y2,4,6-receptors based on measurements of increases in intracellular calcium concentrations in 1321N1 astrocytoma cells transfected with the respective plasmid, as described in Materials and Methods, and the results are summarized in Table 2.

[4] = biological target: T3, P2Y2-R (Homo sapiens, UniProt P41231); assay: [Ca2+]i increase in 1321N1 astrocytoma cells expressing P2Y2-R; format: cell-based; set-up: expressed in transfected cells; host or cells: 1321N1 astrocytoma cells
Method: as §1, §2, §3

[5] = biological target: T3, P2Y2-R; conditions: Ginsburg-Shmuel et al., 2010; read-out: EC50 at P2Y2-R (literature); cited from earlier work
[6] = biological target: P2Y2 receptor (Rattus norvegicus, UniProt P41232); conditions: compared to ATP and UTP; Tulapurkar et al., 2004; cited from earlier work
[7] = tested on: intraocular pressure in normotense rabbits; conditions: cited from earlier work
[8] = 1321N1 astrocytoma cells, [Ca2+]i, n.d.r = no detectable response up to 100 μM

T3 sequence (P41231 whole entry): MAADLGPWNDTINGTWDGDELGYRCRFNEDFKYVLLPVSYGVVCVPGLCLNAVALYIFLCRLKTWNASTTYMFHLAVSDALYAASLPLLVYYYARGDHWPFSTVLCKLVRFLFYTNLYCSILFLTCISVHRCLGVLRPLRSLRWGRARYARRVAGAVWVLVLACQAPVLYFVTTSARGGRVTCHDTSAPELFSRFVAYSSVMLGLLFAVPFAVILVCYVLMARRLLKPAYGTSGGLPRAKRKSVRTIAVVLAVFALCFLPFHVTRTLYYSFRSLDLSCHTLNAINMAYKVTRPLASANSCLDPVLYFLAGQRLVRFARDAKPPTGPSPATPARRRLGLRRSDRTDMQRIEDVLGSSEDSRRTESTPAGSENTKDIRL
T1 sequence (Q15077 whole entry): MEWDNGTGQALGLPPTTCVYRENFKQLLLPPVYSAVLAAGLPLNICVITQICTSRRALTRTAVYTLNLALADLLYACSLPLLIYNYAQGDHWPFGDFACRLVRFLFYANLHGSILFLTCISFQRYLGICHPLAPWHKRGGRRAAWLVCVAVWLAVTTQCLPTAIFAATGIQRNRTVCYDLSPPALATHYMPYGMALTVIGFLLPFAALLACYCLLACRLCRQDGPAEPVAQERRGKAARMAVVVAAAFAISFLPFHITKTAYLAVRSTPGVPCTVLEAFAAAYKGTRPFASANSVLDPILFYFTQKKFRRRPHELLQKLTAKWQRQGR
T2 sequence (P51582 whole entry): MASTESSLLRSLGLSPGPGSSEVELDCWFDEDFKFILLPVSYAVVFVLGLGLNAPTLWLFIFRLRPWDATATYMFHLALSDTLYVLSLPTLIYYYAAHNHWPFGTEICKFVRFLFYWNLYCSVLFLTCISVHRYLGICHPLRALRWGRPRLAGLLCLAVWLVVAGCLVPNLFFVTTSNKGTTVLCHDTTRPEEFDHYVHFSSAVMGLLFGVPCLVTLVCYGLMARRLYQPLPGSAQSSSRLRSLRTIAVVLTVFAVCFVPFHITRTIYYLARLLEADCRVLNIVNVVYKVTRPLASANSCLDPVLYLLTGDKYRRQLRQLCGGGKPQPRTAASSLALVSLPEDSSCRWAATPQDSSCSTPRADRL
Sequence of P2Y2 receptor (P41232 whole entry): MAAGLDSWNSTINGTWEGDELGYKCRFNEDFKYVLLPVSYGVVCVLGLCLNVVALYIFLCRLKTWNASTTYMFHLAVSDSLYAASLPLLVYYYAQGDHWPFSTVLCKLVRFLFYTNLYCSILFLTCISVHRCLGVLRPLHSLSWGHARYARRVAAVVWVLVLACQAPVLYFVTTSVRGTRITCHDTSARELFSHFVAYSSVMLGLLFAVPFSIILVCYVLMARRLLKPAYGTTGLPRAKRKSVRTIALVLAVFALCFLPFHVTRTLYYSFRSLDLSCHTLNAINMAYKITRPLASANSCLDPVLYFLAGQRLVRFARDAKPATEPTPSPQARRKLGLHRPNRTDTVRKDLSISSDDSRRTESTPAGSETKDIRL

Row | EC50 [2] [µM] | Potencies (EC50) at the P2Y4-R [3] | Potencies (EC50) at the P2Y2-R [4, 8] | SMILES | further results
1 | – | – | – | [BH3-][P+](O)(OC[C@H]1O[C@@H](n2ccc(=O)[nH]c2=O)[C@H](O)[C@@H]1O)OP(=O)(O)O (stereo partly drawn) [Analogue 11, Uridine-5′-O-(α-boranodiphophate), reference compound] | Half-life in human blood serum: 21 h; Rate constant of phosphate ester hydrolysis at pH 1.4 [1]: 1.14×10^−5 s^−1
2 | 0.2 | n.d.r | n.d.r | [BH3-][P+](O)(OP(=O)(O)OC[C@H]1O[C@@H](n2cc(OC)c(=O)[nH]c2=O)[C@H](O)[C@@H]1O)OP(=O)(O)OC[C@H]1O[C@@H](n2cc(OC)c(=O)[nH]c2=O)[C@H](O)[C@@H]1O [Analogue 17, di-(5-OMe)-uridine 5″5″-P^1,P^3,β-boranotriphosphate] | –
3 | – | – | – | BP(=O)(OCC1OC(n2cc(OC)c(=O)[nH]c2=O)C(O)C1O)OP(=O)(O)O (stereo not drawn) [Analogue 13, 5-methoxyuridine-5′-O-(α-boranodiphosphate)] | Half-life (t1/2) of hydrolysis at pH 1.4 ([1]; buffer, pH 1.4): 16.9 h; Rate constant of phosphate ester hydrolysis at pH 1.4 [1]: 1.31×10^−5 s^−1
4 | 2.2 | n.d.r | n.d.r | [BH3-][P+](O)(OCC1OC(n2cc(OC)c(=O)[nH]c2=O)C(O)C1O)OP(=O)(O)OP(=O)(O)OCC1OC(n2cc(OC)c(=O)[nH]c2=O)C(O)C1O (single isomer, unassigned) [Analogue 16B, di-(5-OMe)-uridine 5′,5″-P^1,P^3,α-boranotriphosphate] | –
5 | 11.2 ± 0.63 | n.d.r | n.d.r | [BH3-][P+](O)(OC[C@H]1O[C@@H](n2cc(OC)c(=O)[nH]c2=O)[C@H](O)[C@@H]1O)OP(=O)(O)OP(=O)(O)O (single isomer, unassigned) [Analogue 14A, 5-methoxyuridine-5′-O-(α-boranotriphosphate)] | –
6 | – | – | – | O=c1ccn([C@@H]2O[C@H](COP(=O)(O)OP(=O)(O)OP(=O)(O)O)[C@@H](O)[C@H]2O)c(=O)[nH]1 [UTP, reference compound] | EC50 ([3]; read-out: Potencies (EC50) at the P2Y4-R): 900 nM; EC50 [5]: 100 nM; EC50 ([4]; 1321N1 astrocytoma cells, [Ca2+]i, n.d.r = no detectable response up to 100 μM, read-out: Potencies (EC50) at the P2Y2-R): 140 nM
7 | – | – | – | BP(=O)(OC[C@H]1O[C@@H](n2cc(OC)c(=O)[nH]c2=O)[C@H](O)[C@@H]1O)OP(=O)(O)OP(=O)(O)O (stereo partly drawn) [Analogue 14, 5-methoxyuridine-5′-O-(α-boranotriphosphate)] | Activity at the P2Y6-R (in words) [2]: hardly active; Activity at the P2Y2-receptor (in words) ([4]; 1321N1 cells): completely inactive
8 | 4.3 | n.d.r | n.d.r | [BH3-][P+](O)(OCC1OC(n2cc(OC)c(=O)[nH]c2=O)C(O)C1O)OP(=O)(O)O (single isomer, unassigned) [Analogue 13B, 5-methoxyuridine-5′-O-(α-boranodiphosphate)] | –
9 | 20.1 ± 0.7 | n.d.r | n.d.r | [BH3-][P+](O)(OC[C@H]1O[C@@H](n2cc(OC)c(=O)[nH]c2=O)[C@H](O)[C@@H]1O)OP(=O)(O)OP(=O)(O)O (single isomer, unassigned) [Analogue 14B, 5-methoxyuridine-5′-O-(α-boranotriphosphate)] | –
10 | – | – | – | BP(=O)(OC[C@H]1O[C@@H](n2cnc3c(N)ncnc32)[C@H](O)[C@@H]1O)OP(=O)(O)OP(=O)(O)O (stereo partly drawn) [ATP(α-B)] | Response at the P2Y2 receptor (in words, literature) [6]: very weak response
11 | – | – | – | CSc1nc(N)c2ncn([C@@H]3O[C@H](COP(=O)(O)OP(=O)(O)C(Cl)(Cl)P(=O)(O)O)[C@@H](O)[C@H]3O)c2n1 [2MeS-adenosine-β,γ-CCl2-5′-triphosphate] | Duration of effect on IOP (literature) [7]: about 5 hours; Reduction of IOP (literature) [7]: 32%; EC50 ([7]; read-out: EC50 of IOP reduction (literature)): 95.5 nM
12 | 0.06 | n.d.r | n.d.r | [BH3-][P+](O)(OCC1OC(n2cc(OC)c(=O)[nH]c2=O)C(O)C1O)OP(=O)(O)OP(=O)(O)OCC1OC(n2cc(OC)c(=O)[nH]c2=O)C(O)C1O (single isomer, unassigned) [Analogue 16A, di-(5-OMe)-uridine 5′,5″-P^1,P^3,α-boranotriphosphate] | Less potent than mono-nucleotide counterpart 13A at P2Y6-R ([2]; ratio of EC50 values): about 9 times
13 | > 10 | n.d.r | n.d.r | COc1cn([C@@H]2O[C@H](COP(=O)(O)OP(=O)(O)OP(=O)(O)OC[C@H]3O[C@@H](n4cc(OC)c(=O)[nH]c4=O)[C@H](O)[C@@H]3O)[C@@H](O)[C@H]2O)c(=O)[nH]c1=O [Analogue 15, di-(5-OMe)-uridine 5′,5″-P^1,P^3, triphosphate] | Activity at the P2Y6-R (in words) [2]: least active P2Y6-R agonist; also recorded: weakest potency among the tested nucleotides
